PubChem BioAssay (NCI)
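Interpolation was linear, between the two tested concentrations surrounding the appropriate level; five concentrations were tested over 48 hours in 96-well plates. The concentration for full growth arrest is given as TGI.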

Tests used:
Assay in all cases: NCI tumour cell line growth inhibition, 48 h
[1] = test system: A498 renal
[2] = test system: UACC-257 melanoma
[3] = test system: HL-60(TB) leukemia
[4] = test system: K-562 leukemia
[5] = test system: NCI-H522 lung
[6] = test system: CCRF-CEM leukemia
[7] = test system: NCI-H23 lung
[8] = test system: MDA-MB-231 breast
[9] = test system: SR leukemia
[10] = test system: SF-295 CNS
[11] = test system: TK-10 renal
[12] = test system: MOLT-4 leukemia
[13] = test system: T-47D breast
[14] = test system: SN12C renal
[15] = test system: UACC-62 melanoma
[16] = test system: PC-3 prostate
[17] = test system: HS 578T breast
[18] = test system: SNB-19 CNS
[19] = test system: SW-620 colon
[20] = test system: NCI-H226 lung
[21] = test system: HCT-116 colon
[22] = test system: OVCAR-8 ovarian
[23] = test system: NCI-H460 lung
[24] = test system: UO-31 renal
[25] = test system: HOP-92 NSCLC
[26] = test system: M14 melanoma
[27] = test system: IGROV1 ovarian
[28] = test system: OVCAR-4 ovarian
[29] = test system: HCT-15 colon
[30] = test system: MCF7 breast
[31] = test system: OVCAR-5 ovarian
[32] = test system: 786-0 renal
[33] = test system: DU-145 prostate
[34] = test system: KM12 colon
[35] = test system: COLO 205 colon
[36] = test system: HT29 colon
[37] = test system: NCI/ADR-RES ovarian
[38] = test system: BT-549 breast
[39] = test system: SF-268 CNS
[40] = test system: MDA-MB-435
[41] = test system: HCC-2998 colon
[42] = test system: RXF 393 renal
[43] = test system: ACHN renal
[44] = test system: SK-MEL-28 melanoma
[45] = test system: LOX IMVI melanoma
[46] = test system: SK-MEL-5 melanoma
[47] = test system: MDA-N
[48] = test system: MALME-3M melanoma
[49] = test system: A549 NSCLC
[50] = test system: SNB-75 CNS
[51] = test system: CAKI-1 renal
[52] = test system: SK-OV-3 ovarian
[53] = test system: HOP-62 NSCLC
[54] = test system: EKVX NSCLC
[55] = test system: U251 CNS
[56] = test system: SK-MEL-2 melanoma
[57] = test system: SF-539 CNS
[58] = test system: OVCAR-3 ovarian
[59] = test system: RPMI-8226 leukemia

COc1ccc(-c2c(=O)[nH]n3c(=S)nc(-c4ccccc4)[nH]c23)cc1OC
TGI [1]: 33.1 µM
TGI [2]: 61.1 µM
TGI [3]: 39.3 µM
TGI [4]: 95 µM
TGI [5]: 37.9 µM
TGI [6]: 31.1 µM
TGI [7]: 58.3 µM
TGI [8]: 97.8 µM
TGI [9]: 24.2 µM
TGI [10]: 51.4 µM
TGI [11]: 53.1 µM
TGI [12]: 33.4 µM
TGI [13]: 42.6 µM
TGI [14]: 37.3 µM
TGI [15]: 39.8 µM
TGI [16]: 90.7 µM
TGI [17]: > 100 µM
TGI [18]: 28.5 µM
TGI [19]: 83.8 µM
TGI [20]: 40.7 µM
TGI [21]: 31.4 µM
TGI [22]: 50.4 µM
TGI [23]: > 100 µM
TGI [24]: 33.8 µM
TGI [25]: 37 µM
TGI [26]: 38 µM
TGI [27]: 56.7 µM
TGI [28]: 61.1 µM
TGI [29]: 41.6 µM
TGI [30]: 36.9 µM
TGI [31]: 47.3 µM
TGI [32]: 33.9 µM
TGI [33]: 52.3 µM
TGI [34]: 35.8 µM
TGI [35]: 31.3 µM
TGI [36]: 48.8 µM
TGI [37]: 55.7 µM
TGI [38]: 37.6 µM
TGI [39]: > 100 µM
TGI [40]: 39.2 µM
TGI [41]: 36.1 µM
TGI [42]: 32.4 µM
TGI [43]: 51.1 µM
TGI [44]: 54.7 µM
TGI [45]: 37 µM
TGI [46]: 30.1 µM
TGI [47]: 28.3 µM
TGI [48]: 40.7 µM
TGI [49]: > 100 µM
TGI [50]: 54 µM
TGI [51]: 51.6 µM
TGI [52]: 55.9 µM
TGI [53]: 84.9 µM
TGI [54]: 60.8 µM
TGI [55]: 58.5 µM

CC(C)=CCNc1ncnc2nc[nH]c12
TGI [1]: > 100 µM
TGI [2]: > 100 µM
TGI [3]: > 100 µM
TGI [4]: > 100 µM
TGI [5]: > 100 µM
TGI [6]: > 100 µM
TGI [7]: > 100 µM
TGI [8]: > 100 µM
TGI [9]: > 100 µM
TGI [10]: > 100 µM
TGI [11]: > 100 µM
TGI [12]: > 100 µM
TGI [13]: > 100 µM
TGI [14]: > 100 µM
TGI [56]: > 100 µM
TGI [15]: > 100 µM
TGI [16]: > 100 µM
TGI [17]: > 100 µM
TGI [57]: > 100 µM
TGI [18]: > 100 µM
TGI [19]: > 100 µM
TGI [20]: > 100 µM
TGI [21]: > 100 µM
TGI [22]: > 100 µM
TGI [58]: > 100 µM
TGI [23]: > 100 µM
TGI [24]: > 100 µM
TGI [25]: > 100 µM
TGI [26]: > 100 µM
TGI [27]: > 100 µM
TGI [28]: > 100 µM
TGI [29]: > 100 µM
TGI [59]: > 100 µM
TGI [30]: > 100 µM
TGI [31]: > 100 µM
TGI [32]: > 100 µM
TGI [33]: > 100 µM
TGI [34]: > 100 µM
TGI [35]: > 100 µM
TGI [36]: > 100 µM
TGI [37]: > 100 µM
TGI [38]: > 100 µM
TGI [39]: > 100 µM
TGI [40]: > 100 µM
TGI [42]: > 100 µM
TGI [43]: > 100 µM
TGI [44]: > 100 µM
TGI [45]: > 100 µM
TGI [46]: > 100 µM
TGI [47]: > 100 µM
TGI [48]: > 100 µM
TGI [49]: > 100 µM
TGI [50]: > 100 µM
TGI [51]: > 100 µM
TGI [52]: > 100 µM
TGI [53]: > 100 µM
TGI [54]: > 100 µM
TGI [55]: > 100 µM

Cc1nc2sc3ccccc3n2c(=O)c1N=Nc1ccc(Br)cc1
TGI [1]: > 100 µM
TGI [2]: > 100 µM
TGI [3]: > 100 µM
TGI [4]: > 100 µM
TGI [5]: > 100 µM
TGI [6]: > 100 µM
TGI [7]: > 100 µM
TGI [8]: > 100 µM
TGI [9]: > 100 µM
TGI [10]: > 100 µM
TGI [11]: > 100 µM
TGI [12]: > 100 µM
TGI [13]: > 100 µM
TGI [14]: > 100 µM
TGI [56]: > 100 µM
TGI [15]: > 100 µM
TGI [16]: > 100 µM
TGI [17]: > 100 µM
TGI [57]: > 100 µM
TGI [18]: > 100 µM
TGI [19]: > 100 µM
TGI [20]: > 100 µM
TGI [21]: > 100 µM
TGI [22]: > 100 µM
TGI [58]: > 100 µM
TGI [23]: > 100 µM
TGI [25]: > 100 µM
TGI [26]: > 100 µM
TGI [27]: > 100 µM
TGI [28]: > 100 µM
TGI [29]: > 100 µM
TGI [59]: > 100 µM
TGI [30]: > 100 µM
TGI [31]: > 100 µM
TGI [32]: > 100 µM
TGI [33]: > 100 µM
TGI [34]: > 100 µM
TGI [35]: > 100 µM
TGI [36]: > 100 µM
TGI [37]: > 100 µM
TGI [38]: > 100 µM
TGI [39]: > 100 µM
TGI [40]: > 100 µM
TGI [42]: > 100 µM
TGI [43]: > 100 µM
TGI [44]: > 100 µM
TGI [45]: > 100 µM
TGI [46]: > 100 µM
TGI [47]: > 100 µM
TGI [48]: > 100 µM
TGI [49]: > 100 µM
TGI [50]: > 100 µM
TGI [51]: > 100 µM
TGI [52]: > 100 µM
TGI [53]: > 100 µM
TGI [54]: > 100 µM
TGI [55]: > 100 µM

CC(C)(C)c1cc(C2NCCO2)cc(C(C)(C)C)c1O (centres undefined)
TGI [1]: > 100 µM
TGI [2]: > 100 µM
TGI [3]: > 100 µM
TGI [4]: > 100 µM
TGI [5]: > 100 µM
TGI [6]: > 100 µM
TGI [7]: > 100 µM
TGI [8]: 54.8 µM
TGI [9]: > 100 µM
TGI [10]: > 100 µM
TGI [11]: > 100 µM
TGI [12]: > 100 µM
TGI [13]: 27.6 µM
TGI [14]: > 100 µM
TGI [56]: > 100 µM
TGI [15]: > 100 µM
TGI [16]: > 100 µM
TGI [17]: > 100 µM
TGI [57]: > 100 µM
TGI [19]: > 100 µM
TGI [20]: > 100 µM
TGI [21]: > 100 µM
TGI [22]: > 100 µM
TGI [58]: > 100 µM
TGI [23]: > 100 µM
TGI [25]: > 100 µM
TGI [27]: > 100 µM
TGI [28]: > 100 µM
TGI [29]: > 100 µM
TGI [59]: > 100 µM
TGI [30]: > 100 µM
TGI [31]: > 100 µM
TGI [32]: > 100 µM
TGI [33]: > 100 µM
TGI [34]: > 100 µM
TGI [35]: > 100 µM
TGI [36]: > 100 µM
TGI [37]: > 100 µM
TGI [38]: > 100 µM
TGI [39]: > 100 µM
TGI [40]: > 100 µM
TGI [42]: 37.8 µM
TGI [43]: > 100 µM
TGI [44]: > 100 µM
TGI [45]: > 100 µM
TGI [46]: > 100 µM
TGI [47]: > 100 µM
TGI [48]: > 100 µM
TGI [50]: 30.6 µM
TGI [51]: > 100 µM
TGI [52]: > 100 µM
TGI [53]: > 100 µM
TGI [54]: > 100 µM
TGI [55]: > 100 µM
